This note sets out measurements from patent US6204295A, “Antioxidant compounds” (Orion Corporation, priority 1996, dated 2001).

Assay [1] relates to lipid peroxidation in rat liver microsomes. The assay can be described thus: Inhibition of ascorbate/ADP-FeCl3-induced lipid peroxidation in rat liver microsomes (TBA reactive material). Format: biochemical, rat (Sprague-Dawley). The following applies: rat liver microsomes 1.2 mg protein/ml, pH 6.0, 20 min at 37° C., read-out: IC50 values for the inhibition of microsomal lipid peroxidation, initiated by Ascorbate/ADP-FeCl3.
Description: (§2) Adult male Sprague-Dawley rats were decapitated, and the liver was excised and chilled in ice-cold 0.25 M sucrose solution. A 20% (w/v) liver homogenate was prepared in the sucrose solution (0° C.) with a homogenizer. Microsomes were prepared from the postmitochondrial (12000×g for 10 min at 4° C.) supernatant fluid by centrifugation (105000×g for 10 min at 4° C.).
(§3) The antioxidant properties of the compounds were estimated by their potency to inhibit t-butylhydroperoxide (t-BuOOH) or ascorbate/ADP-FeCl3 -induced lipid peroxidation in rat liver microsomes in vitro. In the t-BuOOH assay the buffer (50 mM sodium carbonate, pH 10.2, with 0.1 mM EDTA) was pipetted in a volume of 0.8 ml in the luminometer cuvette. 20 μl of diluted rat liver microsomes (final concentration 1.5 μg protein/ml) was added, followed by 6 μl of luminol (0.5 mg/ml) and test compounds. The reaction was initiated by 0.05 ml of 0.9 mM t-BuOOH at 33° C. The chemiluminescence was measured for about 45 min and the area under the curve was calculated. In the ascorbate/ADP-FeCl3 assay microsomes (final concentration 1.2 mg protein/ml) in 20 mM phosphate buffer, including 90 mM KCl, were incubated for 20 min at 37° C. in the presence of ascorbate (0.5 mM final concentration; pH of the buffer 6.0), ADP and FeCl3 (final concentrations 0.85 and 0.05 mM, respectively) and test compounds. Total incubation volume was 0.5 ml. The incubation was stopped by addition of 0.5 ml of 30% trichloroacetic acid plus 0.05 ml 2% butylated hydroxytoluene in ethanol. The extent of lipid peroxidation was estimated by the amount of thiobarbituric acid (TBA) reactive material formed.
(§4) IC50 value means concentration of test compound that inhibits lipid peroxidation by 50%.

The target in assay [2] is T1, NADPH oxidase of the neutrophils (Homo sapiens, UniProt P04839).
T1 construct: Neutrophils were isolated from 30 ml freshly drawn heparinized whole blood; endogenous in cells; host or cells: neutrophils isolated from freshly drawn heparinized whole blood
T1 sequence (P04839 2-570 limits assumed): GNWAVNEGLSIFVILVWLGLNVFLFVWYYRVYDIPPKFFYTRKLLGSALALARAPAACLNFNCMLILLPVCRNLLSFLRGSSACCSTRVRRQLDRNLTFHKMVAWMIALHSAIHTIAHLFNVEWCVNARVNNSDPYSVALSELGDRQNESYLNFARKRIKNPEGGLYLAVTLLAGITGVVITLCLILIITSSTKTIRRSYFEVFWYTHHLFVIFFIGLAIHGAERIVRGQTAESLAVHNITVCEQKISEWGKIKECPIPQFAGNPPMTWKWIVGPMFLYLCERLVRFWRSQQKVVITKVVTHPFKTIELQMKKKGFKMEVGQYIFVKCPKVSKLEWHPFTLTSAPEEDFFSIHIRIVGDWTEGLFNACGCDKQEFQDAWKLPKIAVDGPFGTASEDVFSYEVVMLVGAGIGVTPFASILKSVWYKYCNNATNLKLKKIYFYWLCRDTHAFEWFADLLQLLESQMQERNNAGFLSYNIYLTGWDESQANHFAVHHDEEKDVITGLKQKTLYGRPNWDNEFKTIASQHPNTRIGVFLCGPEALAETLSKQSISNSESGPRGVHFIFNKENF
T1 sequence (P13498 2-195 partner limits assumed): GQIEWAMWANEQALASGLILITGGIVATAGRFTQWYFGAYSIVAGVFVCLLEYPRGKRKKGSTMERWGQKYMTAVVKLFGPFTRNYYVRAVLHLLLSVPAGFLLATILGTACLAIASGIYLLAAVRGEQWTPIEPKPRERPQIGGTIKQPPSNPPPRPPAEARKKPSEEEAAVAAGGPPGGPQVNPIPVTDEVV
The assay can be described thus: Inhibition of reactive oxygen production (oxidative burst) by PMA-activated neutrophils, luminol enhanced chemiluminescence. The following applies: for inhibition at 1000 µM: read-out: Inhibition of NADPH oxidase of the neutrophils at 1 mM. Format: cell-based. Here is the method:
Neutrophils were isolated from 30 ml freshly drawn heparinized whole blood, after dextran sedimentation of erythrocytes for 30 min. The leucocyte rich plasma was layered over an equal volume of Percoll (Sigma) and centrifuged at 400 g for 15 min. […] Neutrophils were washed with PBS (pH 7.1) and centrifuged at 200 g for 10 min. Cells were resuspended in fresh HBS (containing […], 0.4 g KCl, 0.06 g Na2 HPO4×2H2 O, 0.06 g KH2 PO4, 0.1 g MgSO4×7H2 O and 1 g glucose in 1000 ml of distilled water; pH adjusted to 7.4 by 7% NaHCO3) and counted before use.
One ml of cell suspension (final cell count 10^6 cells/ml) and the test compound was placed in cuvettes. Production of reactive oxygen by neutrophils ("oxidative burst") was stimulated by addition of phorbol-myristate-acetate (PMA; final concentration 2 μM). The luminol enhanced chemiluminescence was recorded.

The test system of assay [3] is lipid peroxidation in rat liver microsomes. The assay can be described thus: Inhibition of t-butylhydroperoxide-induced lipid peroxidation in rat liver microsomes (luminol chemiluminescence). The note with it: for IC50: t-BuOOH, rat liver microsomes 1.5 μg protein/ml, pH 10.2, 33° C., about 45 min, read-out: IC50 values for the inhibition of microsomal lipid peroxidation, initiated by t-Butylhydroperoxide; for antioxidant potency in the t-BuOOH test compared with butylated hydroxyanisole: in words, versus butylated hydroxyanisole. Format: biochemical, rat (Sprague-Dawley).
Description: as §2, §3, §4

Assay [4] concerns serum lipid peroxides (TBA-reactive material). Nature of the assay: In vivo serum lipid peroxides, TBA-reactive material. The note with it: rats; daily oral gavage 12 and 48 mg/kg; 2 days to 12 months; FIG. 2. Set-up: species or system rat (female Sprague-Dawley). As for the experimental part: (§1) Test compound was given to six-week old female Sprague-Dawley rats daily by oral gavage at doses of 12 and 48 mg/kg for 12 months. The vehicle, carboxymethyl cellulose (0.5%), was given to control animals. Five rats per dose group were killed after 2 days, 5 weeks, 3, 6 and 12 months of dosing. Further groups were allowed to recover for 13 weeks without treatment after 6 and 12 months' dosing. The serum levels of lipid peroxides were measured by two different methods (diene conjugation and TBA-reactive material). For the measurement of diene conjugation, lipids extracted from serum samples (100 μl) by chloroform/methanol (2:1), dried under nitrogen and redissolved in cyclohexane, were analyzed spectrophotometrically (at 234 nm). For the analysis of TBA-reactive material serum samples (100 μl) were diluted in phosphate buffer and heated together with a TBA solution ([…]) in a boiling water bath for 15 min. The tubes were cooled, and the absorbances measured at 535 nm.

The test system of assay [5] is serum lipid peroxides (diene conjugation). Nature of the assay: In vivo serum lipid peroxides, diene conjugation. Details: species or system rat (female Sprague-Dawley). The following applies: rats; daily oral gavage 12 and 48 mg/kg; 2 days to 12 months; FIG. 1. Here is the method: as §1
Where [6] appears, read: PMA 2 μM, 10^6 cells/ml, read-out: IC50, inhibition of NADPH oxidase of the neutrophils.

Where two headings read alike, the source gives them in different places.

`C[C@]12CC[C@@H]3c4ccc(O)cc4CC[C@H]3[C@@H]1CC[C@@H]2O` [17β-estradiol]: the IC50 was found to be 300 µM in assay [1] and 4.6 µM in assay [3]. Besides, the “Inhibition of NADPH oxidase of the neutrophils at 1 mM” value in assay [2] (1 mM, PMA 2 μM, 10^6 cells/ml) is “no effect”.

As to `CN(C)CCOc1ccc(/C(=C(/CCCl)c2ccccc2)c2ccccc2)cc1` [Compound 1, 4-chloro-1,2-diphenyl-1-[4-[2-(N,N-dimethylamino)ethoxy]phenyl]-1-butene], the IC50 came out at 18 µM in assay [1], 2.17 µM in assay [2] and 450 µM in assay [3]. Further, in assay [4], the “effect on serum TBA-reactive material” value was “effective in decreasing both diene conjugation and TBA-reactive material in rats”. Further, the inhibition at 1000 µM in assay [2] is greater than 99%. Besides, the “effect on serum diene conjugation” value in assay [5] was “effective in decreasing both diene conjugation and TBA-reactive material in rats”.

`CN(C)CCOc1ccc(/C(=C(/CCCl)c2ccccc2)c2ccc(O)cc2)cc1` [Compound 2, 4-chloro-1-(4-hydroxyphenyl)-1-[4-[2-(N,N-dimethylamino)ethoxy]phenyl]-2-phenyl-1-butene]: the IC50 in assay [1] stood at 8 µM; in assay [2] (setting [6]), 2.12 µM; in assay [3] it was 0.18 µM. In addition, the inhibition at 1000 µM in assay [2] (1 mM, PMA 2 μM, 10^6 cells/ml) is greater than 99%. The “antioxidant potency in the t-BuOOH test compared with butylated hydroxyanisole” value in assay [3] is listed as “even stronger than that of the known synthetic antioxidant butylated hydroxyanisole”.

As for `CNCCOc1ccc(/C(=C(/CCCl)c2ccccc2)c2ccc(O)cc2)cc1` [Compound 3, 4-chloro-1-(4-hydroxyphenyl)-1-[4-[2-(N-methylamino)ethoxy]phenyl]-2-phenyl-1-butene], the results for the IC50 in assay [1] and in assay [3] were 31 µM and 27 µM, respectively.

As for `CN(C)CCOc1ccc(/C(=C(/CCI)c2ccccc2)c2ccccc2)cc1` [Compound 4, 4-iodo-1,2-diphenyl-1-[4-[2-(N,N-dimethylamino)ethoxy]phenyl]-1-butene], the IC50 was determined as 3 µM in assay [1], 2.32 µM in assay [2] (setting [6]) and 0.38 µM in assay [3]. Moreover, the inhibition at 1000 µM in assay [2] (1 mM, PMA 2 μM, 10^6 cells/ml) is greater than 99%. In addition, the “antioxidant potency in the t-BuOOH test compared with butylated hydroxyanisole” value in assay [3] was “even stronger than that of the known synthetic antioxidant butylated hydroxyanisole”.

On to `CN(C)CCOc1ccc(/C(=C(\CCCl)c2ccccc2)c2ccccc2)cc1` [Compound 5, 4-chloro-1,2-diphenyl-1-[4-[2-(N,N-dimethylamino)ethoxy]phenyl]-1-butene], for which the figures for the IC50 in assay [1] and in assay [3] were 36 µM and 410 µM, respectively.

As to `Cc1c(C)c2c(c(C)c1O)CCC(C)(C(=O)O)O2` (stereo not shown) [Trolox], in assay [2] (1 mM, PMA 2 μM, 10^6 cells/ml), the “Inhibition of NADPH oxidase of the neutrophils at 1 mM” value is “no effect” and the inhibition at 1000 µM was determined as 59%.

On to `COc1ccc(O)c(C(C)(C)C)c1` [butylated hydroxyanisole], for which the IC50 in assay [1] was determined as 0.2 µM; in assay [3], 1.1 µM.

In the case of `CC/C(=C(/CC)c1ccc(O)cc1)c1ccc(O)cc1` [diethylstilbestrol], in assay [2], the IC50 was 8 µM and the inhibition at 1000 µM is greater than 99%.

In the case of `Cc1c(C)c2c(c(C)c1O)CCC(C)(CCCC(C)CCCC(C)CCCC(C)C)O2` (stereo not drawn) [α-tocopherol], the IC50 was 43 µM in assay [1] and 2 µM in assay [3].
